Experimental data: US9474790B2, “Stable, protracted GLP-1/glucagon receptor co-agonists for medical use” (Novo Nordisk A/S, priority 2013, dated 2016)
Numbered stars: 1 amine (or outer) side, 2 acyl side, 3 side chain; on linkers, the order of the positions; unused ones are H or OH. Square brackets hold non-standard residues; d marks the D form. Side chains are listed from the residue outwards. Peptide text beside a SMILES is read from it. * marks the point of attachment. C18 diacid = O=C(O)CCCCCCCCCCCCCCCCC(=O)*; γGlu = O=C(O)[C@H](CCC(=O)[*:2])N[*:1]; Ac4c = NC1(C(=O)O)CCC1; AEEA = NCCOCCOCC(=O)O; Aib = CC(C)(N)C(=O)O

molecular target: T1, human glucagon receptor (Homo sapiens, UniProt P47871); test: Glucagon receptor binding, 125I-glucagon displacement SPA on isolated membranes; conditions: displacement of 125I-glucagon from membranes; read-out: IC50 GlucR
T1 construct: expressed in transfected cells; host or cells: BHK cells (parent BHK570, CRE luciferase clone BHK/KZ10-20-48), clone pLJ6'-4-25
T1 sequence (P47871 26-477): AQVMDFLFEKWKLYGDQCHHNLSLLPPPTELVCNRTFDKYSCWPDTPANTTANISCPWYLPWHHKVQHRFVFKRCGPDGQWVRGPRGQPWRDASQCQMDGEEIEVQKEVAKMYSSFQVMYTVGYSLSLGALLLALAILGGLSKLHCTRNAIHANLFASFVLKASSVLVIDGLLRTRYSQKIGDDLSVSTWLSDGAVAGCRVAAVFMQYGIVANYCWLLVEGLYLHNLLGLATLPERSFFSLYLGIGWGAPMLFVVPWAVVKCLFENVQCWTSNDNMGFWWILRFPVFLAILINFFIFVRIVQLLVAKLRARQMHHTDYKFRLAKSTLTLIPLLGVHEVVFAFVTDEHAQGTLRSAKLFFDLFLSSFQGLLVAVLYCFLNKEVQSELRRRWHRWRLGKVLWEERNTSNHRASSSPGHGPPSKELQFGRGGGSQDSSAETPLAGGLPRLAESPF
Procedure, shortened: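 Membranes from BHK cells stably expressing human glucagon receptor incubated 2 h at 25 °C with [125I]-glucagon (25 μl of 480 pM solution) and serial compound dilutions in WGA SPA format, pH 7.4 buffer with 0.1% ovalbumin. Albumin at max 0.001% or 0.2% final. IC50 from non-linear regression.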

| IC50 [nM] | SMILES |
| --- | --- |
| 4 | CC(C)C[C@H](NC(=O)[C@H](Cc1ccc(O)cc1)NC(=O)[C@H](CCCCN)NC(=O)[C@H](CO)NC(=O)[C@H](CC(C)C)NC(=O)[C@H](CC(=O)O)NC(=O)[C@H](CO)NC(=O)[C@@H](NC(=O)[C@H](Cc1ccccc1)NC(=O)[C@@H](NC(=O)CNC(=O)[C@H](CCC(N)=O)NC(=O)C(C)(C)NC(=O)[C@@H](N)Cc1c[nH]cn1)[C@@H](C)O)[C@@H](C)O)C(=O)N[C@@H](CCC(=O)O)C(=O)N[C@@H](CO)C(=O)N[C@@H](CCCNC(=N)N)C(=O)N[C@@H](CCCNC(=N)N)C(=O)N[C@@H](C)C(=O)N[C@@H](CCCNC(=N)N)C(=O)N[C@@H](CCC(=O)O)C(=O)N[C@@H](Cc1ccccc1)C(=O)N[C@H](C(=O)N[C@@H](CCC(N)=O)C(=O)N[C@@H](Cc1c[nH]c2ccccc12)C(=O)N[C@@H](CC(C)C)C(=O)N[C@@H](CC(C)C)C(=O)N[C@@H](CCCCNC(=O)CC[C@H](NC(=O)CC[C@H](NC(=O)COCCOCCNC(=O)COCCOCCNC(=O)CC[C@H](NC(=O)CC[C@H](NC(=O)CCCCCCCCCCCCCCCCC(=O)O)C(=O)O)C(=O)O)C(=O)O)C(=O)O)C(=O)N[C@H](C(N)=O)[C@@H](C)O)C(C)C [Example 60, N^ε28-[(4S)-4-carboxy-4-[[(4S)-4-carboxy-4-[[2-[2-[2-[[2-[2-[2-[[(4S)-4-carboxy-4-[[(4S)-4-carboxy-4-(17-carboxyheptadecanoylamino)butanoyl]amino]butanoyl]amino]ethoxy]ethoxy]acetyl]amino]ethoxy]ethoxy]acetyl]amino]butanoyl]amino]butanoyl]-[Aib2,Leu10,Glu15,Arg20,Glu21,Leu27,Lys28]-Glucagon amide] (H-H[Aib]QGTFTSDLSKYLESRRAREFVQWLLK([γGlu-γGlu-AEEA-AEEA-γGlu-γGlu-C18 diacid])T-NH2; N-terminus assumed) |
| 1.8 | CC(C)C[C@H](NC(=O)[C@H](Cc1ccc(O)cc1)NC(=O)[C@H](CCCCN)NC(=O)[C@H](CO)NC(=O)[C@H](CC(C)C)NC(=O)[C@H](CC(=O)O)NC(=O)[C@H](CO)NC(=O)[C@@H](NC(=O)[C@H](Cc1ccccc1)NC(=O)[C@@H](NC(=O)CNC(=O)[C@H](CCC(N)=O)NC(=O)C1(NC(=O)[C@@H](N)Cc2c[nH]cn2)CCC1)[C@@H](C)O)[C@@H](C)O)C(=O)N[C@@H](CCC(=O)O)C(=O)N[C@@H](CO)C(=O)N[C@@H](CCCNC(=N)N)C(=O)N[C@@H](CCCNC(=N)N)C(=O)N[C@@H](C)C(=O)N[C@@H](CCCNC(=N)N)C(=O)N[C@@H](CCC(=O)O)C(=O)N[C@@H](Cc1ccccc1)C(=O)N[C@H](C(=O)N[C@@H](CCC(N)=O)C(=O)N[C@@H](Cc1c[nH]c2ccccc12)C(=O)N[C@@H](CC(C)C)C(=O)N[C@@H](CC(C)C)C(=O)N[C@@H](CCCCNC(=O)CC[C@H](NC(=O)CC[C@H](NC(=O)COCCOCCNC(=O)COCCOCCNC(=O)CC[C@H](NC(=O)CC[C@H](NC(=O)CCCCCCCCCCCCCCCCC(=O)O)C(=O)O)C(=O)O)C(=O)O)C(=O)O)C(=O)N[C@H](C(N)=O)[C@@H](C)O)C(C)C [Example 61, N^ε28-[(4S)-4-carboxy-4-[[(4S)-4-carboxy-4-[[2-[2-[2-[[2-[2-[2-[[(4S)-4-carboxy-4-[[(4S)-4-carboxy-4-(17-carboxyheptadecanoylamino)butanoyl]amino]butanoyl]amino]ethoxy]ethoxy]acetyl]amino]ethoxy]ethoxy]acetyl]amino]butanoyl]amino]butanoyl]-[Acb2,Leu10,Glu15,Arg20,Glu21,Leu27,Lys28]-Glucagon amide] (H-H[Ac4c]QGTFTSDLSKYLESRRAREFVQWLLK([γGlu-γGlu-AEEA-AEEA-γGlu-γGlu-C18 diacid])T-NH2; N-terminus assumed) |
| 3.9 | CC(C)C[C@H](NC(=O)[C@H](Cc1ccc(O)cc1)NC(=O)[C@H](CCCNC(=N)N)NC(=O)[C@H](CO)NC(=O)[C@H](CC(C)C)NC(=O)[C@H](CC(=O)O)NC(=O)[C@H](CO)NC(=O)[C@@H](NC(=O)[C@H](Cc1ccccc1)NC(=O)[C@@H](NC(=O)CNC(=O)[C@H](CCC(N)=O)NC(=O)C(C)(C)NC(=O)[C@@H](N)Cc1c[nH]cn1)[C@@H](C)O)[C@@H](C)O)C(=O)N[C@@H](CC(=O)O)C(=O)N[C@@H](C)C(=O)N[C@@H](CCCNC(=N)N)C(=O)N[C@@H](CCCNC(=N)N)C(=O)N[C@@H](C)C(=O)N[C@@H](CCCNC(=N)N)C(=O)N[C@@H](CC(=O)O)C(=O)N[C@@H](Cc1ccccc1)C(=O)N[C@H](C(=O)N[C@@H](CCC(N)=O)C(=O)N[C@@H](Cc1c[nH]c2ccccc12)C(=O)N[C@@H](CC(C)C)C(=O)N[C@@H](CC(C)C)C(=O)N[C@@H](CCCCNC(=O)CC[C@H](NC(=O)CC[C@H](NC(=O)CC[C@H](NC(=O)CCCCCCCCCCCCCCCCC(=O)O)C(=O)O)C(=O)O)C(=O)O)C(=O)N[C@H](C(N)=O)[C@@H](C)O)C(C)C [Example 62, N^ε28-[(4S)-4-carboxy-4-[[(4S)-4-carboxy-4-[[(4S)-4-carboxy-4-(17-carboxyheptadecanoylamino)butanoyl]amino]butanoyl]amino]butanoyl]-[Aib2,Leu10,Arg12,Ala16,Arg20,Leu27,Lys28]-Glucagon amide] (H-H[Aib]QGTFTSDLSRYLDARRARDFVQWLLK([γGlu-γGlu-γGlu-C18 diacid])T-NH2; N-terminus assumed) |
| 1.5 | CC(C)C[C@H](NC(=O)[C@H](Cc1ccc(O)cc1)NC(=O)[C@H](CCCCN)NC(=O)[C@H](CO)NC(=O)[C@H](CC(C)C)NC(=O)[C@H](CC(=O)O)NC(=O)[C@H](CO)NC(=O)[C@@H](NC(=O)[C@H](Cc1ccccc1)NC(=O)[C@@H](NC(=O)CNC(=O)[C@H](CCC(N)=O)NC(=O)C(C)(C)NC(=O)[C@@H](N)Cc1c[nH]cn1)[C@@H](C)O)[C@@H](C)O)C(=O)N[C@@H](CCC(=O)O)C(=O)N[C@@H](CO)C(=O)N[C@@H](CCCNC(=N)N)C(=O)N[C@@H](CCCNC(=N)N)C(=O)N[C@@H](C)C(=O)N[C@@H](CCCNC(=N)N)C(=O)N[C@@H](CCC(=O)O)C(=O)N[C@@H](Cc1ccccc1)C(=O)N[C@H](C(=O)N[C@@H](CCC(N)=O)C(=O)N[C@@H](Cc1c[nH]c2ccccc12)C(=O)N[C@@H](CC(C)C)C(=O)N[C@@H](CC(C)C)C(=O)N[C@@H](CCCCNC(=O)CC[C@H](NC(=O)CC[C@H](NC(=O)[C@H](CO)NC(=O)[C@H](CCC(=O)O)NC(=O)[C@H](CO)NC(=O)CC[C@H](NC(=O)CC[C@H](NC(=O)CCCCCCCCCCCCCCCCC(=O)O)C(=O)O)C(=O)O)C(=O)O)C(=O)O)C(=O)N[C@H](C(N)=O)[C@@H](C)O)C(C)C [Example 67, N^ε28-[(4S)-4-carboxy-4-[[(4S)-4-carboxy-4-[[(2S)-2-[[(2S)-4-carboxy-2-[[(2S)-2-[[(4S)-4-carboxy-4-[[(4S)-4-carboxy-4-(17-carboxyheptadecanoylamino)butanoyl]amino]butanoyl]amino]-3-hydroxypropanoyl]amino]butanoyl]amino]-3-hydroxypropanoyl]amino]butanoyl]amino]butanoyl]-[Aib2,Leu10,Glu15,Arg20,Glu21,Leu27,Lys28]-Glucagon amide] (H-H[Aib]QGTFTSDLSKYLESRRAREFVQWLLK([γGlu-γGlu-Ser-Glu-Ser-γGlu-γGlu-C18 diacid])T-NH2; N-terminus assumed) |
| 0.6 | CC(C)C[C@H](NC(=O)[C@H](Cc1ccc(O)cc1)NC(=O)[C@H](CCCCN)NC(=O)[C@H](CO)NC(=O)[C@H](CC(C)C)NC(=O)[C@H](CC(=O)O)NC(=O)[C@H](CO)NC(=O)[C@@H](NC(=O)[C@H](Cc1ccccc1)NC(=O)[C@@H](NC(=O)CNC(=O)[C@H](CCC(N)=O)NC(=O)C1(NC(=O)[C@@H](N)Cc2c[nH]cn2)CCC1)[C@@H](C)O)[C@@H](C)O)C(=O)N[C@@H](CCC(=O)O)C(=O)N[C@@H](CO)C(=O)N[C@@H](CCCCN)C(=O)N[C@@H](CCCNC(=N)N)C(=O)N[C@@H](C)C(=O)N[C@@H](CCCNC(=N)N)C(=O)N[C@@H](CCC(=O)O)C(=O)N[C@@H](Cc1ccccc1)C(=O)N[C@H](C(=O)N[C@@H](CCC(N)=O)C(=O)N[C@@H](Cc1c[nH]c2ccccc12)C(=O)N[C@@H](CC(C)C)C(=O)N[C@@H](CC(C)C)C(=O)N[C@@H](CCCCNC(=O)CC[C@H](NC(=O)CC[C@H](NC(=O)[C@H](CO)NC(=O)[C@H](CCC(=O)O)NC(=O)[C@H](CO)NC(=O)CC[C@H](NC(=O)CC[C@H](NC(=O)CCCCCCCCCCCCCCCCC(=O)O)C(=O)O)C(=O)O)C(=O)O)C(=O)O)C(=O)N[C@H](C(N)=O)[C@@H](C)O)C(C)C [Example 68, N^ε28-[(4S)-4-carboxy-4-[[(4S)-4-carboxy-4-[[(2S)-2-[[(2S)-4-carboxy-2-[[(2S)-2-[[(4S)-4-carboxy-4-[[(4S)-4-carboxy-4-(17-carboxyheptadecanoylamino)butanoyl]amino]butanoyl]amino]-3-hydroxypropanoyl]amino]butanoyl]amino]-3-hydroxypropanoyl]amino]butanoyl]amino]butanoyl]-[Acb2,Leu10,Glu15,Lys17,Arg20,Glu21,Leu27,Lys28]-Glucagon amide] (H-H[Ac4c]QGTFTSDLSKYLESKRAREFVQWLLK([γGlu-γGlu-Ser-Glu-Ser-γGlu-γGlu-C18 diacid])T-NH2; N-terminus assumed) |
